In publication PMC10587159, “Biosynthesis and engineering of the nonribosomal peptides with a C-terminal putrescine” (Nature Communications, 2023):
Where two headings read alike, the source gives them in different places. Non-standard residues stand in square brackets, D forms with d. Residues, ends and D or L forms follow the SMILES beside them. *: point of attachment. dMet(O) = CS(=O)CC[C@@H](N)C(=O)O; Lauroyl = CCCCCCCCCCCC(=O)*; Octanoyl = CCCCCCCC(=O)*; NH(CH2)4NH2 = NCCCCN*

How the values were obtained:
[1] = system: human lung adenocarcinoma cell A549; test: MTT cytotoxicity assay, A549; format: cell-based
From the text: (§1) The two human acute lymphoblastic leukemia cells K562 and Kasumi, two human breast adenocarcinoma cells MCF7 and MDA-MB-231, human hepatoma cell HepG-2, human lung adenocarcinoma cell A549, human gastric cancer cell SGC-7901, human colon cancer cell HCT-116, human ovarian cancer cell line SKOV3, or human lung epithelial normal cell 2B were obtained from Beyotime Biotechnology and utilized to test the cytotoxicity of compounds by MTT assays as previous study. The anti-inflammatory effect of the compounds was detected by the influence on the increase in the level of nitric oxide caused by lipopolysaccharide (LPS) based on the classic Griess method. RAW 264.7 cells (Shanghai Institutes for Biological Science) were seeded in 96-well plates and incubated for 24 h. Then, cells were treated with compounds 29, 29a, 31, and 31a (0-80 μM) for 30 min, followed by co-treatment with LPS ([…]) for another 24 h. The Nitric Oxide assay kit with Griess reagents (Beyotime, Lot: S0021, Shanghai, China) was used to examine cellular supernatant nitrite accumulation, which represents cellular NO levels. The OD value of 540 nm absorbance was detected with a microplate reader. Their authentication in the laboratory was performed regularly based on morphology and gene/protein expression. The tested micro-organisms including Gram-negative bacteria E. coli ATCC 35218 and Pseudomonas aeruginosa ATCC 27853, and Gram-positive bacteria Staphylococcus aureus ATCC 29213 and B. subtilis ATCC 6633, and fungi Candida albicans, Rhizoctonia solani and Aspergillus fumigatus were treated with different concentrations of compounds (1 μM, 10 μM, 100 μM) using Bauer-Kirby disk diffusion method to evaluate the antimicrobial activities.

[2] = system: human hepatoma cell HepG-2; test: cells; format: cell-based
From the text: as §1

[3] = system: human lung epithelial normal cell 2B; test: cells; format: cell-based
From the text: as §1

[4] = system: human ovarian cancer cell line SKOV3; test: cells; format: cell-based
From the text: as §1

PvdQ-like acylase GdnD = test: Deacylation by acylase GdnD (cell lysate, LC-MS); format: biochemical, Schlegelella brevitalea DSM 7029; details: 100 μL E. coli cell lysate with GdnD, 5 μL 10 mM substrate, 30 °C; 7 and 8: 4 h, 16 h, 27 h; other substrates 16 h; boiled lysate as control
Method: The hydrolysis function of PvdQ-like acylase GdnD was tested. GdnD is predicted to be a periplasmic protein by PSORTb[13]. The collected pellet from 50 mL LB dissolved with 8 mL buffer C (50 mM Tris, 300 mM NaCl, 5 mM MgCl2, pH 7.6), and lysed by cell disruption. Then, one hundred microliter of the cell lysate was incubated with 5 μL 10 mM substrates 7 and 8 for 4 h, 16 h, and 27 h at 30 °C. The negative control was boiled cell lysate. The other substrates (13, 14, 15, 16, and 17) incubated with the cell lysate dealt for 16 h at 30 °C. Then, the reaction was stopped by the addition of the 100 μL MeOH, and the final mixture was checked by LC‒MS analysis (5%‒95% ACN in 15 min) according to the above condition.

[5] = system: human breast adenocarcinoma cells MDA-MB-231; test: cells; format: cell-based
From the text: as §1

human cells Kasumi = test: MTT cytotoxicity assay, Kasumi; format: cell-based; details: Homo sapiens; MTT assay; Supplementary Table 11; read-out: IC50 Kasumi
From the text: as §1

[6] = system: human acute lymphoblastic leukemia cells K562; test: cells; format: cell-based; details: Homo sapiens, K562; MTT assay; Supplementary Table 11; read-out: IC50 K562
From the text: as §1

[7] = system: human breast adenocarcinoma cells MCF7; test: cells; format: cell-based; details: Homo sapiens, MCF7; MTT assay; Supplementary Table 11; read-out: IC50 MCF-7
From the text: as §1

[8] = system: human colon cancer cell HCT-116; test: cells; format: cell-based; details: Homo sapiens, HCT-116; MTT assay; Supplementary Table 11; read-out: IC50 HCT116
From the text: as §1

[9] = system: human gastric cancer cell SGC-7901; test: cells; format: cell-based; details: Homo sapiens, SGC-7901; MTT assay; Supplementary Table 11; read-out: IC50 SGC-7901
From the text: as §1

tumor lines = test: MTT cytotoxicity assay, statements on the whole panel; format: cell-based, human
From the text: as §1

[10] = system: C13 domain of GdnB fragments and mutants; test: Condensation of T12-linked L-Ala with Put or other diamines (yield of 24a-27a, LC-MS); format: biochemical, Schlegelella brevitalea DSM 7029; details: Average of n = 3
Method: In vitro assays for the different enzymes of the C-terminal multi-domains were performed. Reaction buffer contained 80 μM protein, 3 μM Sfp from B. subtilis, 200 μM CoA, 2.5 mM L-Ala and 5 mM ATP was incubated at 30 °C for 30 min. Then, 2.5 mM diamines or polyamines (i.e. putrescine, 1,7-diaminoheptane, 1,6-diaminohexane, 1,5-diaminopentane, 1,2-diaminocyclohexane, spermine, and spermidine, respectively) was added to make final volume of 200 μL. The reaction was further incubated at 30 °C for 1 h or 4 h. Triple amount of cold methanol was added to quench the reaction, and the supernatant was dried by SpeedVac after removed the precipitate at 10,000 × g for 8 min. The reaction mixture was dissolved with 200 μL ddH2O, and then the mixture was derived with D-FDAA according to the procedure of the above Marfey’s analysis. The final reaction mixture was suspended using 100 μL 2 M HCl, which subsequently was dried by SpeedVac. Finally, the mixture dissolved with 100 μL MeOH to detect the target products (24a, 25a, 26a, and 27a) using LC‒MS analysis (5%‒95% ACN in 15 min).

[11] = system: S. brevitalea DSM 7029 wild type; test: Biofilm formation of DSM 7029 wild type with compounds (crystal violet); format: cell-based, Schlegelella brevitalea DSM 7029; details: relative to wild type treated with H2O = 100%; crystal violet 0.1%, OD600; mean of n = 3
Method: The growth curve was tested by Bioscreen C (Labsystems, Finland) as follow. Overnight culture was inoculated into 400 μL fresh CYMG medium in the ratio of 1:100 (the concentration of compounds was 0.1 μg/μL) and shook in normal speed. The OD600 value was gained in every hour for 42 h in total. Biofilm formation was measured at 18 h and 36 h respectively, as reported previously. In brief, the free-floating cells were removed, and the microtitre plate was washed with PBS (pH 7.4) after incubation for 18 h and 36 h. The biofilm was stained by adding 200 µL of crystal violet (0.1%) solution. Crystal violet solution was removed after 15 min and 200 µL of ethanol (95%) was added. The absorbance at OD600 was read using a microplate reader (Infinite M200, Tecan, Männedorf, Switzerland). Meanwhile, free-floating cells were used to test the secretion of pigment. The bacteria were removed and the supernatant was measured at OD600.

Question: Which results are given for CCCCCCCC(=O)N[C@@H](CC(C)C)C(=O)N[C@H](C(=O)N[C@@H](Cc1ccc(O)cc1)C(=O)N[C@H](C)C(=O)N[C@@H](C)C(=O)N[C@H](C)C(=O)N[C@H](C(=O)O)C(C)C)[C@@H](C)O [Compound 29a, octanoyl-L-Leu-L-Thr-L-Tyr-D-Ala-L-Ala-D-Ala-L-Val] (Octanoyl-LTY[dA]A[dA]V-OH)?
Answer: IC50 ([1]; 24 h): 82.2 ± 2.58 µM; IC50 ([2]; 24 h): 267.5 ± 0.01 µM; IC50 ([3]; 24 h): 269.4 ± 1.23 µM; IC50 ([4]; 24 h): 161 ± 3.67 µM

Question: How did the “deacylation by GdnD, nonacylated product by LC-MS” value (PvdQ-like acylase GdnD) turn out when “C14-Rhizomide A [Compound 17, reference compound]” was run?
Answer: could remove myristoyl

Question: Which results are given for CCCCCCCC(=O)N[C@H](C(=O)N[C@@H](Cc1ccccc1)C(=O)N[C@@H](CCC(=O)O)C(=O)N[C@H](C(=O)N[C@@H](C)C(=O)O)[C@@H](C)CC)C(C)C [Compound 31a] (Octanoyl-VFEIA-OH; C-terminus assumed)?
Answer: IC50 ([1]; 24 h): 453.4 ± 0.68 µM; IC50 ([5]; 24 h): 200.5 ± 0.07 µM; IC50 ([2]; 24 h): 94.29 ± 0.19 µM; IC50 ([3]; 24 h): 92.26 ± 0.03 µM; IC50 SKOV3 ([4]; MTT assay, Supplementary Table 12, n.s. indicates negative significance): n.s.

Question: COc1cccc2c1C(=O)c1c(O)c3c(c(O)c1C2=O)C[C@@](O)(C(=O)CO)C[C@@H]3O[C@H]1C[C@H](N)[C@H](O)[C@H](C)O1 [doxorubicin, reference compound] was tested. Which IC50 (human cells Kasumi) did it give?
Answer: 0.42 ± 0.1 µM

Question: And the IC50 ([1]; Homo sapiens, A549, MTT assay, Supplementary Table 11, read-out: IC50 A549)?
Answer: 0.82 ± 0.25 µM

Question: What about the IC50 ([1]; Homo sapiens, A549, MTT assay, Supplementary Table 12, read-out: IC50 A549) of the same compound?
Answer: 0.73 ± 0.05 µM

Question: What about the IC50 [6] of the same compound?
Answer: 0.79 ± 0.34 µM

Question: What about the IC50 [7] of the same compound?
Answer: 2.6 ± 0.34 µM

Question: What about the IC50 ([5]; Homo sapiens, MDA-MB-231, MTT assay, Supplementary Table 11, read-out: IC50 MDA-MB-231) of the same compound?
Answer: 0.63 ± 0.07 µM

Question: What about the IC50 ([5]; Homo sapiens, MDA-MB-231, MTT assay, Supplementary Table 12, n.s. indicates negative significance, read-out: IC50 MDA-MB-231) of the same compound?
Answer: 0.91 ± 0.05 µM

Question: And the IC50 [8]?
Answer: 0.59 ± 0.04 µM

Question: What about the IC50 [9] of the same compound?
Answer: 0.14 µM

Question: And the IC50 ([2]; Homo sapiens, HepG2, MTT assay, Supplementary Table 11, read-out: IC50 HepG2)?
Answer: 3.21 ± 0.67 µM

Question: What about the IC50 ([2]; Homo sapiens, HepG2, MTT assay, Supplementary Table 12, read-out: IC50 HepG-2) of the same compound?
Answer: 0.23 ± 0.02 µM

Question: What about the IC50 ([3]; Homo sapiens, MTT assay, normal cell, Supplementary Table 11, read-out: IC50 2B) of the same compound?
Answer: 1.32 ± 0.11 µM

Question: What about the IC50 ([3]; Homo sapiens, MTT assay, normal cell, Supplementary Table 12, read-out: IC50 2B) of the same compound?
Answer: 1.34 ± 0.09 µM

Question: What about the IC50 ([4]; Homo sapiens, SK-OV-3, MTT assay, Supplementary Table 12, n.s. indicates negative significance, read-out: IC50 SKOV3) of the same compound?
Answer: 1.29 ± 0.01 µM

Question: How did the IC50 ([1]; 24 h) turn out when CCCCCCCC(=O)N[C@@H](CC(C)C)C(=O)N[C@H](C(=O)N[C@@H](Cc1ccc(O)cc1)C(=O)N[C@H](C)C(=O)N[C@@H](C)C(=O)N[C@H](C)C(=O)N[C@H](C(=O)NCCCCN)C(C)C)[C@@H](C)O [Compound 29] (Octanoyl-LTY[dA]A[dA]V-{NH(CH2)4NH2}) was run?
Answer: 39.92 ± 0.15 µM

Question: What about the IC50 ([5]; 24 h) of the same compound?
Answer: 110 ± 2.6 µM

Question: What about the IC50 ([2]; 24 h) of the same compound?
Answer: 265.5 ± 2.43 µM

Question: And the IC50 ([3]; 24 h)?
Answer: 102.4 ± 0.25 µM

Question: What about the IC50 ([4]; 24 h) of the same compound?
Answer: 81.4 ± 1.02 µM

Question: What about the “cytotoxic / antitumor activity in words” value (tumor lines) of the same compound?
Answer: higher anti-inflammatory and antitumor activities than 29a and 31a

Question: And the IC50 (tumor lines; 24 h)?
Answer: > 40 µM

Question: For CC(N)C(=O)NCCCCNc1cc(NC(C)C(N)=O)c([N+](=O)[O-])cc1[N+](=O)[O-] [Compound 24a, L-Ala-Put-FDAA], which “L-Ala condensing with Put, 1,5-diaminopentane, 1,6-diaminohexane, and 1,7-diaminoheptane (Relative Yield of product)” value ([10]; protein A12T12) is on record?
Answer: 100

Question: What about the “L-Ala condensing with Put, 1,5-diaminopentane, 1,6-diaminohexane, and 1,7-diaminoheptane (Relative Yield of product)” value ([10]; protein A12T12C13A*T13) of the same compound?
Answer: 1640

Question: CCCCCCCCCCCC(=O)N[C@H](CC[S+](C)[O-])C(=O)N[C@H](CC(N)=O)C(=O)N1CCC[C@H]1C(=O)N[C@H](C(=O)N[C@H](Cc1ccccc1)C(=O)N1CCC[C@H]1C(=O)N[C@@H](Cc1c[nH]c2ccccc12)C(=O)N[C@@H](C(=O)N[C@@H](C)C(=O)N[C@H](C)C(=O)N[C@@H](CO)C(=O)N[C@@H](C)C(=O)NCCCCN)C(C)C)C(C)C (stereo partly shown) [Compound 8, Glidonin H] (Lauroyl-[dMet(O)][dN]PV[dF]PW[dV]A[dA]SA-{NH(CH2)4NH2}) was tested. Which IC50 ([1]; 24 h) did it give?
Answer: > 20 µM

Question: What about the IC50 ([5]; 24 h) of the same compound?
Answer: > 20 µM

Question: And the IC50 ([2]; 24 h)?
Answer: > 20 µM

Question: And the IC50 ([3]; 24 h)?
Answer: > 20 µM

Question: What about the “biofilm formation 18 h, Average” value [11] of the same compound?
Answer: 153.143%

Question: And the “biofilm formation 36 h, Average” value [11]?
Answer: 147.847%

Question: What about the “deacylation by GdnD, nonacylated product by LC-MS” value (PvdQ-like acylase GdnD) of the same compound?
Answer: nonacylated products 1 and 2 were detected
